The text below walks through data of ChEMBL document CHEMBL1144194, “Initial SAR studies on apamin-displacing 2-aminothiazole blockers of calcium-activated small conductance potassium channels” (Bioorg Med Chem Lett, 2008).

Assay [1] deals with T1, Small conductance calcium-activated potassium channel protein 3 (Homo sapiens, UniProt Q9UGI6). Kind of assay: Inhibition of Kca2.3 channel expressed in HEK293 cells by thallium flux assay. In kind it is cell-based.
Assay [2] deals with T1, Small conductance calcium-activated potassium channel protein 3. Kind of assay: Inhibition of Kca2.3 channel expressed in HEK293 cells by electrophysiology assay. The format is cell-based.
Assay [3] is described as follows: Inhibition of Kca channel.
Assay [4] deals with T1, Small conductance calcium-activated potassium channel protein 3. Kind of assay: Inhibition of Kca2.3 channel expressed in HEK293 cells at 30 uM by thallium flux assay. In kind it is cell-based.
Assay [5] has the same target. Kind of assay: Displacement of [125I]apamin from Kca2.3 channel expressed in HEK293 cells by scintillation proximity assay. The format is cell-based. In general terms: In a radioligand displacement assay an active substance lowers the binding of a labelled ligand.
Assay [6] concerns the target Small conductance calcium-activated potassium channel protein 1 (Homo sapiens, UniProt Q92952). Kind of assay: Inhibition of Kca2.1 channel expressed in HEK293 cells by thallium flux assay. In kind it is cell-based.
For assay [7], the target named is T2, Small conductance calcium-activated potassium channel protein 2 (Homo sapiens, UniProt Q9H2S1). In words: Inhibition of Kca2.2 channel expressed in HEK293 cells by thallium flux assay. In kind it is cell-based.
T2 sequence (Q9H2S1 whole entry): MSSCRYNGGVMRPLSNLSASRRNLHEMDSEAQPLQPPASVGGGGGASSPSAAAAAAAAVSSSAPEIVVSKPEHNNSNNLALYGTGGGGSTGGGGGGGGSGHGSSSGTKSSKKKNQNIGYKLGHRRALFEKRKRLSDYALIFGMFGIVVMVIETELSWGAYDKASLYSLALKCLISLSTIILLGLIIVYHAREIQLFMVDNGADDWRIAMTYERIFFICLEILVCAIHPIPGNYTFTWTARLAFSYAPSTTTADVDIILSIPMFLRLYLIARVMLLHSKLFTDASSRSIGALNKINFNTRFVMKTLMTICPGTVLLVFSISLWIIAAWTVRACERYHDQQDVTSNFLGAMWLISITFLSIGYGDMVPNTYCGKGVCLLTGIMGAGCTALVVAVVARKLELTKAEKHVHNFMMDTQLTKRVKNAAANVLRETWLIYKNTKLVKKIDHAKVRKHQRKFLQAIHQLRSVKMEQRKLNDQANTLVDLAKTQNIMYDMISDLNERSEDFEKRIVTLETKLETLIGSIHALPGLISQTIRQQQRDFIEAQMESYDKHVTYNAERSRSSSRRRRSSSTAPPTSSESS
In assay [8] the target is Intermediate conductance calcium-activated potassium channel protein 4 (Homo sapiens) (UniProt O15554). In words: Inhibition of Kca3.1 channel expressed in HEK293 cells by thallium flux assay. In kind it is cell-based.
Sequence of Intermediate conductance calcium-activated potassium channel protein 4 (Homo sapiens) (O15554 whole entry): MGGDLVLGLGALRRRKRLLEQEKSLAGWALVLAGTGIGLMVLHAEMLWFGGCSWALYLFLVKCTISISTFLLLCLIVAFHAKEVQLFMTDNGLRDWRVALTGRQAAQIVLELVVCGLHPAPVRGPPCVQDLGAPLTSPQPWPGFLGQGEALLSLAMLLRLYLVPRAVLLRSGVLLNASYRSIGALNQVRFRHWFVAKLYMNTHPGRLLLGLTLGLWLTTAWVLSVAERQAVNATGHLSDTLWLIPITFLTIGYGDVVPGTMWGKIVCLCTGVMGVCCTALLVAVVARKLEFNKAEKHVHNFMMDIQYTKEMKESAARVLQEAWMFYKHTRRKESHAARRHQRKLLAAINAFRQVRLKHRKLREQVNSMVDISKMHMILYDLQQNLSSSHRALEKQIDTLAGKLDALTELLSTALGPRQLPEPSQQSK
Assay [9] has as its target T2, Small conductance calcium-activated potassium channel protein 2. In words: Displacement of [125I]apamin from Kca2.2 channel expressed in HEK293 cells. The format is cell-based.
In assay [10] the target is Intermediate conductance calcium-activated potassium channel protein 4 (Homo sapiens) (UniProt O15554). In words: Inhibition of Kca3.1 channel expressed in HEK293 cells at 30 uM by thallium flux assay. The format is cell-based.
Assay [11] is described as follows: Inhibition of guinea-pig Kca channel. Also on record: species or system Cavia porcellus.

Active and inactive are the calls of the source. The rule behind the calls is not given here. Peptide text beside a SMILES is read from it.

T1 sequence (Q9UGI6 whole entry): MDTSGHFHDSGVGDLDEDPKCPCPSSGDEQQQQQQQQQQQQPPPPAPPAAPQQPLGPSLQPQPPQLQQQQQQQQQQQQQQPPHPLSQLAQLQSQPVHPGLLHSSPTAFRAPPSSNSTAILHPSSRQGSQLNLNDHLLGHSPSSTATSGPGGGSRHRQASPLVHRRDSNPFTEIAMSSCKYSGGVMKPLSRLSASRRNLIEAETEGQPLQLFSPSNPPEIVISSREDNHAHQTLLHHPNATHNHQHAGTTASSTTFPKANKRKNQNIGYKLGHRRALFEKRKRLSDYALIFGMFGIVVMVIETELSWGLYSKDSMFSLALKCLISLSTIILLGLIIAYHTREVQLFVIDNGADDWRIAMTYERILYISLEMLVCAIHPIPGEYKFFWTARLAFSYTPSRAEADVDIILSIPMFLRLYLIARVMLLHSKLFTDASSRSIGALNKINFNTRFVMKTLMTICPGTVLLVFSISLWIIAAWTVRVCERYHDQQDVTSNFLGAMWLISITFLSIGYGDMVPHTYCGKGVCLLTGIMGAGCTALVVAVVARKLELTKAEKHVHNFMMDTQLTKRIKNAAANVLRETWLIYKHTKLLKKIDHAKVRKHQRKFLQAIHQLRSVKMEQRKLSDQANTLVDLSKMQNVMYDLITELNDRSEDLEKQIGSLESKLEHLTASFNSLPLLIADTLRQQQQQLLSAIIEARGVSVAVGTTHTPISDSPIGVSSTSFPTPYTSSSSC
Sequence of Small conductance calcium-activated potassium channel protein 1 (Q92952 whole entry): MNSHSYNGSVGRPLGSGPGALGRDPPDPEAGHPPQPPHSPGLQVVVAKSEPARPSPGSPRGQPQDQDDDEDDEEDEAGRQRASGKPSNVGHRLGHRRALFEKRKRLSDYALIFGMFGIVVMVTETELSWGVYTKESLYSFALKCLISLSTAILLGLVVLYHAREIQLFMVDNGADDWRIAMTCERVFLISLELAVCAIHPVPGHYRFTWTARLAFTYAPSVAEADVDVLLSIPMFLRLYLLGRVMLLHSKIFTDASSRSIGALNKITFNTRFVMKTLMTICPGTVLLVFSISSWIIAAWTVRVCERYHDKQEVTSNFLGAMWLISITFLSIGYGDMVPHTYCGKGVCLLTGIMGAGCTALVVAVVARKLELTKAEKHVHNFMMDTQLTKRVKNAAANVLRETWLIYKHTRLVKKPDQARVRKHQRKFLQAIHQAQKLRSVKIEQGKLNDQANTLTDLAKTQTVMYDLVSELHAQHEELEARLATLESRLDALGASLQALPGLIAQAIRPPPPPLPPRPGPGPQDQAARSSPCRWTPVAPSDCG

Usually IC50 stands for the concentration needed to halve the response being measured. For `Cc1cc(N)c2ccccc2[n+]1CCCCCCCCCC[n+]1c(C)cc(N)c2ccccc21` [DEQUALINIUM CHLORIDE], the IC50 stood at 1300 nM in assay [1], 2000 nM in assay [2] and 1000 nM in [3].

The inhibition is how much of the control response was suppressed. For the compound `c1ccc(-c2csc(Nc3ccncc3)n2)nc1`, the inhibition in [4] turned out to be 14%. In addition, the IC50 in [1] is above 30000 nM.

On to `c1ccc(Nc2nc(-c3cccnc3)cs2)nc1`, for which the inhibition in [4] worked out at 14%. The IC50 in assay [1] is above 30000 nM.

Take `c1ccc(Nc2nc(-c3ccccn3)cs2)nc1`: the inhibition in assay [4] is 89%. The IC50 worked out at 543 nM in assay [1]; 290 nM in assay [2]; 25 nM in [5]; 43 nM in [6]; 123 nM in [7]; 543 nM in [9]. The outcome in [8] was inactive.

Turning to `Ic1ccc(Nc2nc(-c3ccccn3)cs2)nc1`, in assay [4], the inhibition was 29%. Also, in assay [1], the IC50 was above 30000 nM.

As for `c1ccc(Nc2nc(-c3ccccc3)cs2)cc1`, the inhibition in assay [4] turned out to be 18%. For the same compound, the IC50 in [1] is above 30000 nM.

Turning to `c1ccc(Nc2nc(-c3ccccn3)cs2)cc1`, the inhibition in assay [4] is 9%.

In the case of `c1ccc(-c2csc(-c3ccccn3)n2)nc1`, the inhibition in [4] turned out to be 16%. Also, in assay [1], the IC50 was above 30000 nM.

Take `Cc1ccnc(Nc2nc(-c3ccccn3)cs2)c1`: the inhibition in assay [4] is 98%; in [10], 10%.

Regarding `c1cc2cc(c1)C[n+]1ccc(c3ccccc31)NCc1ccc(cc1)CNc1cc[n+](c3ccccc13)C2`, the IC50 in [3] amounted to 3 nM.

On to `c1ccc2c(c1)CCC[C@H]2Nc1nc2ccccc2[nH]1`, for which, in assay [3], half-maximal inhibition (IC50) was put at 500 nM.

Take `FC(F)(F)c1cnc(Nc2nc(-c3ccccn3)cs2)c(Cl)c1`: in assay [4], the inhibition worked out at 8%. Besides, in assay [1], the IC50 is above 30000 nM.

As for `c1ccc(-c2csc(Nc3ncccn3)n2)nc1`, the inhibition in assay [4] stood at 24%. Also, the IC50 in [1] is above 30000 nM.

`c1ccc(-c2csc(Nc3cccnc3)n2)nc1`: in [4], the inhibition turned out to be 45%.

On to `c1ccc(Nc2nc(-c3ccncc3)cs2)nc1`, for which the IC50 in [1] was above 30000 nM.

As to `c1ccc(Cc2nc(-c3ccccn3)cs2)nc1`, in [4], the inhibition worked out at 15%. Besides, the IC50 in assay [1] is above 30000 nM.

A word on the Ki: it is a measure of affinity in units of concentration, obtained from inhibition or displacement. A higher Ki goes with weaker binding. `CC[C@H](C)[C@H](NC(=O)[C@H](CS)NC(=O)[C@H](CCCCN)NC(=O)CNC(=O)[C@H](CC(C)C)NC(=O)[C@H](CC(C)C)NC(=O)CNC(=O)[C@H](CC(C)C)NC(=O)[C@H](CO)NC(=O)[C@H](CCCNC(=N)N)NC(=O)[C@H](CS)NC(=O)[C@H](CO)NC(=O)[C@H](CC(C)C)NC(=O)[C@H](CCC(N)=O)NC(=O)[C@H](CS)NC(=O)[C@H](CCSC)NC(=O)[C@H](CCCNC(=N)N)NC(=O)[C@H](CC(C)C)NC(=O)[C@H](CC(N)=O)NC(=O)[C@H](CS)NC(=O)[C@H](Cc1ccccc1)NC(=O)[C@H](C)N)C(=O)NCC(=O)N[C@@H](CC(=O)O)C(=O)N[C@@H](CCCCN)C(=O)N[C@@H](CS)C(=O)N[C@@H](CCC(=O)O)C(=O)N[C@@H](CS)C(=O)N[C@H](C(=O)N[C@@H](CCCCN)C(=O)N[C@@H](Cc1cnc[nH]1)C(=O)O)C(C)C` [Scyllatoxin] (H-AFCNLRMCQLSCRSLGLLGKCIGDKCECVKH-OH) registered a Ki in assay [11] of 0.075 nM.
